Results from patent US20240208972A1, “LRRK2 INHIBITORS AND USES THEREOF” (NEURON23, INC., priority 2022, published 2024).

Key:
[1] = Brain penetration (Kp,uu) in CD-1 mice, with plasma and brain tissue binding by equilibrium dialysis; format: in vivo; conditions: mouse, brain and plasma (unbound), male CD-1 mice, single IV bolus 1 mg/kg
Description: The compounds disclosed herein were tested on CD-1 mice for brain penetration (Kp, uu) according to the following procedures.
Nine male CD-1 mice were administered TEST COMPOUND by single intravenous bolus administration at 1 mg/kg. The vehicle used for IV study was 5% DMSO, 5% solutol, 20% PEG300 and 70% water. The detailed dosing and sampling regimens are described in the following tables.
1.0 mg of test compound was accurately weighed into a glass vial, and slowly added with 104 μL of DMSO and vortexed for 1 min. Then 104 μL of solutol was added and vortexed for 1 min. Then 415 μL of PEG300 was added and vortexed for 1 min. Then 1000 μL of water was added and vortexed for 1 min. Finally, 451 μL of water was added and vortexed for 1 min to get a clear solution.
The body weights were in the range from 28.81 to 31.25 g for males on the first dosing day. All animals received a single intravenous bolus administration of TEST COMPOUND from the tail vein.
Each blood collection (about 0.06 mL per time point) was performed from saphenous vein of each animal into pre-chilled commercial K2-EDTA tubes as anti-coagulant and placed on wet ice until centrifugation.
Plasma samples were then prepared by centrifuging the blood samples at approximately 4° C., 3200×g for 10 minutes. All plasma samples were then quickly frozen over dry ice and kept at −60° C. or lower until LC-MS/MS analysis.
Brain tissue was homogenized using homogenizing buffer (15 mM PBS (pH7.4): MeOH=2:1) at the ratio of 1:9 (1 g tissue with 9 mL buffer, the dilution ratio is 10). The tissue homogenate was kept at −60° C. or lower until LC-MS/MS analysis.
The concentrations of TEST COMPOUND in plasma and brain were determined by using an LC-MS/MS method.
The plasma and brain concentration of TEST COMPOUND in study animals was subjected to a non-compartmental pharmacokinetic analysis by using the Phoenix WinNonlin software program (version 6.3 or above, Pharsight). The linear/log trapezoidal rule was applied in obtaining the PK parameters.
Individual plasma and brain concentration values that were below the lower limit of quantitation (LLOQ) were excluded from the PK parameter calculation. The nominal dose levels and nominal sampling times were used in the calculation of all pharmacokinetic parameters.
Mouse Kp, uu=(% free in mouse brain*concentration in mouse brain)/(% free in mouse plasma*concentration in mouse plasma)
The dialysis apparatus was assembled according to the manufacturer's instruction. Each Cell was filled with 120 μL of spiked plasma sample and dialyzed against equal volume of dialysis buffer (PBS). The assay was performed in duplicate. The dialysis plates were sealed and incubated in an incubator at 37° C. with 5% CO2 and rotated at 100 rpm for 6 hours. At the end of incubation, the seals were removed and 50 μL of samples from both buffer and plasma chambers were transferred to a 96-well plate.
All calculations were carried out using Microsoft Excel. The concentrations of test compound and control compound in the buffer and plasma chambers were determined from peak area ratios (PAR) of analyte to internal standard. Protein binding (% unbound and % bound) and recovery (% recovery) of test and control compounds was calculated as follows:
• 1. Thawing of the frozen brain (stored at −80° C.) • Frozen brain tissue was thawed at room temperature in a bath. Only brain tissue was used that was thawed no more than once. • 2. Preparation of brain tissue homogenate • Brain tissue homogenate was prepared by diluting one quantity (g) of the whole brain tissue with three volumes (mL) of buffer (PBS, pH 7.4) and homogenizing the mixture using a tissue homogenizer. Brain tissue homogenate was frozen at −80° C. for later use/comparison. • 3. Preparation of working solutions • The working solutions of test compound and the control compound propranolol were prepared in dimethyl sulfoxide (DMSO) at the concentration of 200 μM. […]

Caco-2 cells = assay: Caco-2 bidirectional permeability; format: in vitro ADME; conditions: for Caco-2 A2B (10^−6 cm/s): A to B; for Caco-2 A2B (10^−6 cm/s) / Caco-2 B2A (10^−6 cm/s): HBSS pH 7.4, 2 hours; for Caco-2 B2A (10^−6 cm/s): B to A; for Caco-2 ER: Efflux Ratio=Papp (BA)/Papp (AB)
Procedure, shortened: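 Caco-2 monolayers grown 21–28 days on PET inserts were run in duplicate in HBSS with 10 mM HEPES, pH 7.4. Compound was tested in both directions at […] for 2 h at 37 °C and quantified by LC-MS/MS. Papp, % recovery and efflux ratio (B-A/A-B) were calculated, with lucifer yellow checking monolayer integrity.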

Structure (SMILES) | Kp uu [1] | Caco-2 A2B (10^−6 cm/s) (Caco-2 cells) | Caco-2 B2A (10^−6 cm/s) (Caco-2 cells) | Caco-2 ER (Caco-2 cells)
Cc1n[nH]c2c1N=C(c1c(F)cccc1F)Nc1c-2cc(N2CCOCC2)nc1C [Example 8, 4-[8-(2,6-difluorophenyl)-5,11-dimethyl-3,4,7,9,12-pentazatricyclo[8.4.0.02,6]tetradeca-1(10),2(6),4,7,11,13-hexaen-13-yl]morpholine] | 0.2 to 0.4 | H (H (High permeability)”: A2B (B2A)>5) | H (H (High permeability)”: A2B (B2A)>5) | N (N (Non-substrate)”: ER<2.5)
Cc1n[nH]c2c1N=C(c1c(F)cccc1F)Nc1c(F)cc(N3CCOCC3)cc1-2 [Example 30, 4-(5-(2,6-difluorophenyl)-7-fluoro-3-methyl-1,6-dihydrobenzo[d]pyrazolo[3,4-f][1,3]diazepin-9-yl)morpholine] | > 0.4 | H (H (High permeability)”: A2B (B2A)>5) | H (H (High permeability)”: A2B (B2A)>5) | N (N (Non-substrate)”: ER<2.5)
Cc1n[nH]c2c1N=C(c1c(F)cccc1F)Nc1c-2cc(N2CCN(CC(C)F)CC2)nc1C (racemic) [Example 20, 8-(2,6-difluorophenyl)-13-[4-(2-fluoropropyl)piperazin-1-yl]-5,11-dimethyl-3,4,7,9,12-pentazatricyclo[8.4.0.02,6]tetradeca-1(10),2(6),4,7,11,13-hexaene] | 0.2 to 0.4 | H (H (High permeability)”: A2B (B2A)>5) | H (H (High permeability)”: A2B (B2A)>5) | N (N (Non-substrate)”: ER<2.5)
[2H]C([2H])([2H])c1n[nH]c2c1N=C(c1c(F)cccc1F)Nc1ccc(N3CCOCC3)cc1-2 [Example 33, 4-[5-(2,6-difluorophenyl)-3-(trideuteriomethyl)-1,6-dihydropyrazolo[4,3-d][1,3]benzodiazepin-9-yl]morpholine] | 0.2 to 0.4 | H (H (High permeability)”: A2B (B2A)>5) | H (H (High permeability)”: A2B (B2A)>5) | N (N (Non-substrate)”: ER<2.5)
Cc1n[nH]c2c1N=C(c1c(F)cccc1F)Nc1c-2cc(N2CCN(CC(C)(C)F)CC2)nc1C [Example 5, 5-(2,6-difluorophenyl)-9-(4-(2-fluoro-2-methylpropyl)piperazin-1-yl)-3,7-dimethyl-1,6-dihydropyrazolo[4,3-d]pyrido[4,3-f][1,3]diazepine] | > 0.4 | H (H (High permeability)”: A2B (B2A)>5) | H (H (High permeability)”: A2B (B2A)>5) | N (N (Non-substrate)”: ER<2.5)
Cc1n[nH]c2c1N=C(c1c(F)cccc1F)N1CCc3nc(N4CCOCC4)cc-2c31 [Example 42, 4-[8-(2,6-difluorophenyl)-5-methyl-3,4,7,9,13-pentazatetracyclo[7.6.1.02,6.012,16]hexadeca-1(16),2(6),4,7,12,14-hexaen-14-yl]morpholine] | 0.2 to 0.4 | H (H (High permeability)”: A2B (B2A)>5) | H (H (High permeability)”: A2B (B2A)>5) | N (N (Non-substrate)”: ER<2.5)
Fc1cccc(F)c1C1=Nc2c(C(F)F)n[nH]c2-c2cc(N3CCOCC3)ncc2N1 [Example 10, 4-[5-(difluoromethyl)-8-(2,6-difluorophenyl)-3,4,7,9,12-pentazatricyclo[8.4.0.02,6]tetradeca-1(10),2(6),4,7,11,13-hexaen-13-yl]morpholine] | < 0.2 | H (H (High permeability)”: A2B (B2A)>5) | H (H (High permeability)”: A2B (B2A)>5) | N (N (Non-substrate)”: ER<2.5)
Cc1n[nH]c2c1N=C(c1c(F)cccc1F)Nc1cnc(C#CC3(C)CCOCC3)cc1-2 [Example 17, 8-(2,6-difluorophenyl)-5-methyl-13-[2-(4-methyltetrahydropyran-4-yl)ethynyl]-3,4,7,9,12-pentazatricyclo[8.4.0.02,6]tetradeca-1(10),2(6),4,7,11,13-hexaene] | 0.2 to 0.4 | M (M (Moderate permeability)”: 1≤A2B (B2A)≤5) | H (H (High permeability)”: A2B (B2A)>5) | L (L (Likely)”: ER>2.5)
CCc1n[nH]c2c1N=C(c1c(F)cccc1F)Nc1cnc(N3CCOCC3)cc1-2 [Example 31, 4-[8-(2,6-difluorophenyl)-5-ethyl-3,4,7,9,12-pentazatricyclo[8.4.0.02,6]tetradeca-1(10),2(6),4,7,11,13-hexaen-13-yl]morpholine] | 0.2 to 0.4 | H (H (High permeability)”: A2B (B2A)>5) | H (H (High permeability)”: A2B (B2A)>5) | N (N (Non-substrate)”: ER<2.5)
Cc1n[nH]c2c1N=C(c1c(F)cccc1F)Nc1cnc(-c3cnn(C(F)F)c3)cc1-2 [Example 1, 9-(1-(difluoromethyl)-1H-pyrazol-4-yl)-5-(2,6-difluorophenyl)-3-methyl-1,6-dihydropyrazolo[4,3-d]pyrido[4,3-f][1,3]diazepine] | 0.2 to 0.4 | H (H (High permeability)”: A2B (B2A)>5) | H (H (High permeability)”: A2B (B2A)>5) | N (N (Non-substrate)”: ER<2.5)
Cc1n[nH]c2c1N=C(c1c(F)cccc1F)Nc1c-2cc(N2CCN(CC(F)F)CC2)nc1C [Example 19, 13-[4-(2,2-difluoroethyl)piperazin-1-yl]-8-(2,6-difluorophenyl)-5,11-dimethyl-3,4,7,9,12-pentazatricyclo[8.4.0.02,6]tetradeca-1(10),2(6),4,7,11,13-hexaene] | > 0.4 | H (H (High permeability)”: A2B (B2A)>5) | H (H (High permeability)”: A2B (B2A)>5) | N (N (Non-substrate)”: ER<2.5)
Cc1n[nH]c2c1N=C(c1c(F)cccc1F)Nc1c-2cc(N2CCN(CCF)CC2)nc1C [Example 9, 8-(2,6-difluorophenyl)-13-[4-(2-fluoroethyl)piperazin-1-yl]-5,11-dimethyl-3,4,7,9,12-pentazatricyclo[8.4.0.02,6]tetradeca-1(10),2(6),4,7,11,13-hexaene] | > 0.4 | H (H (High permeability)”: A2B (B2A)>5) | H (H (High permeability)”: A2B (B2A)>5) | N (N (Non-substrate)”: ER<2.5)
[2H]C([2H])([2H])c1n[nH]c2c1N=C(c1c(F)cccc1F)Nc1cnc(N3CCOCC3)cc1-2 [Example 32, 4-[8-(2,6-difluorophenyl)-5-(trideuteriomethyl)-3,4,7,9,12-pentazatricyclo[8.4.0.02,6]tetradeca-1(10),2(6),4,7,11,13-hexaen-13-yl]morpholine] | 0.2 to 0.4 | H (H (High permeability)”: A2B (B2A)>5) | H (H (High permeability)”: A2B (B2A)>5) | L (L (Likely)”: ER>2.5)
